Results taken from US7928134B2, “5-aryl-4,5-dihydro-(1H)-pyrazolines as cannabinoid CB1 receptor agonists” (Solvay Pharmaceuticals B.V., priority 2007, dated 2011).

Columns and labels:
human CB1 receptor = molecular target: T1, human CB1 receptor (Homo sapiens, UniProt P21554); assay: In vitro cannabinoid-CB1 receptor (ant)agonism ([3H]-arachidonic acid release in CHO cells); type: cell-based; conditions: human CB1 receptor cloned in CHO cells; for EC50: read-out: Functional CB1 assays Human CB1 agonism pEC50 (converted)
T1 construct: expressed in transfected cells; host or cells: CHO cells
T1 sequence (P21554 whole entry): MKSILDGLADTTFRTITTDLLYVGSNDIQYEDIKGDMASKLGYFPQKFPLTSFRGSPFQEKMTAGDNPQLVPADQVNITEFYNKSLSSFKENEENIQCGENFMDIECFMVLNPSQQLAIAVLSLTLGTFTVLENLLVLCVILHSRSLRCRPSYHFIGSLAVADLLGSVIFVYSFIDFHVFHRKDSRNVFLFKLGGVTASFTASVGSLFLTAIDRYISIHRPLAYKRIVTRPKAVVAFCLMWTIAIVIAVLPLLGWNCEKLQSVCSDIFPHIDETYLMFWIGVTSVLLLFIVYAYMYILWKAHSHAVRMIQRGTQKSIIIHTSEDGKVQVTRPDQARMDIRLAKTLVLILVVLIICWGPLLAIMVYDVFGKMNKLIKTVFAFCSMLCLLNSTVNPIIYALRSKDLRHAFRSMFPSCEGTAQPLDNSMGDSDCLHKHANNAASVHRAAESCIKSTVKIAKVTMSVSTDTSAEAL
Description: In Vitro Cannabinoid-CB1 Receptor (Ant)Agonism
In vitro CB1 receptor antagonism/agonism can be assessed with the human CB1 receptor cloned in CHO cells. CHO cells are grown in a Dulbecco's Modified Eagle's medium (DMEM) culture medium, supplemented with 10% heat-inactivated fetal calf serum. Medium is aspirated and replaced by DMEM, without fetal calf serum, but containing [^3H]-arachidonic acid and incubated overnight in a cell culture stove (5% CO2/95% air; 37° C.; water-saturated atmosphere). During this period [^3H]-arachidonic acid is incorporated in membrane phospholipids. On the test day, medium is aspirated and cells are washed three times using 0.5 ml DMEM, containing 0.2% bovine serum albumin (BSA). CB1 agonist stimulation leads to activation of PLA2 followed by release of [^3H]-arachidonic acid into the medium. This CB1 agonist-induced release is concentration-dependently antagonized by CB1 receptor antagonists, such as for example rimonabant.

[1] = molecular target: T2, human cannabinoid CB1 receptor (Homo sapiens, UniProt P21554); assay: In vitro affinity for cannabinoid-CB1 receptors ([3H]CP-55,940 radioligand binding); conditions: membranes of CHO cells stably transfected with human CB1, read-out: receptor binding Human CB1 affinity pKi (converted)
T2 construct: expressed in transfected cells; host or cells: Chinese hamster ovary (CHO) cells, membrane preparations
T2 sequence (P21554 whole entry): as above
Description: In Vitro Affinity for Cannabinoid-CB1 Receptors
(§1) The affinity of the compounds of the invention for cannabinoid CB1 receptors can be determined using membrane preparations of Chinese hamster ovary (CHO) cells in which the human cannabinoid CB1 receptor is stably transfected in conjunction with [^3H]CP-55,940 as radioligand. After incubation of a freshly prepared cell membrane preparation with the [^3H]-ligand, with or without addition of one or more compounds of the invention, separation of bound and free ligand is performed by filtration over glassfiber filters. Radioactivity on the filter is measured by liquid scintillation counting.

[2] = molecular target: T3, human cannabinoid CB2 receptor (Homo sapiens, UniProt P34972); assay: In vitro affinity for cannabinoid-CB2 receptors ([3H]CP-55,940 radioligand binding); conditions: membranes of CHO cells stably transfected with human CB2, read-out: receptor binding Human CB2 affinity pKi (converted)
T3 construct: expressed in transfected cells; host or cells: CHO cells, membrane preparations
T3 sequence (P34972 whole entry): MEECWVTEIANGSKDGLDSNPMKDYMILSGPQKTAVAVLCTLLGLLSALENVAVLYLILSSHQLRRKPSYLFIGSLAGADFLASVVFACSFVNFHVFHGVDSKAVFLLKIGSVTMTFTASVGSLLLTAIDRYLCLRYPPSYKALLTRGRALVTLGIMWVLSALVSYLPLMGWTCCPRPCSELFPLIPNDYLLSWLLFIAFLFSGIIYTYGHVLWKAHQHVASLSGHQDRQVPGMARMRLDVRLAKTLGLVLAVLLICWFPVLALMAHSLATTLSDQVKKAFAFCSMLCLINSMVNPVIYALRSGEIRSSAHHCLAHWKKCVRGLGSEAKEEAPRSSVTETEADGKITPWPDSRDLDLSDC
Description: In Vitro Affinity for Cannabinoid-CB2 Receptors
as §1, with “CB2” for “CB1”, “CHO” for “Chinese hamster ovary (CHO)”

SMILES	EC50 (human CB1 receptor) [nM]	Ki [1] [nM]	Ki [2] [nM]	Functional CB1 assays Human CB1 agonism pEC50 (human CB1 receptor)
CCCCCN1N=C(C(=O)NCc2cccc(C(F)(F)F)c2)CC1c1ccccc1 (racemic) [Compound 22]	79.4	63.1	316	–
CCCCCN1N=C(C(=O)NC(C)(C)c2ccccc2)CC1c1ccccn1 (stereo not drawn) [Compound 32, N-(1-Phenyl-1-methyl-ethyl)-1-(n-pentyl)-5-(pyrid-2-yl)-4,5-dihydro-(1H)-pyrazole-3-carboxamide]	39.8	7.94	10	–
CCCCCN1N=C(C(=O)NC2C3CC4CC(C3)CC2C4)CC1c1ccccc1 (stereo not drawn) [Compound 1, N-(Adamant-2-yl)-1-(n-pentyl)-5-phenyl-4,5-dihydro-(1H)-pyrazole-3-carboxamide]	–	7.94	5.01	8.1
CCCCCN1N=C(C(=O)NC2CC3CCC2C3)CC1c1ccccc1 (stereo not drawn) [Compound 12, N-(Exo-bicyclo[2.2.1]hept-2-yl)-1-(n-pentyl)-5-phenyl-4,5-dihydro-(1H)-pyrazole-3-carboxamide]	39.8	79.4	39.8	–
CCCCCN1N=C(C(=O)NC(C)(C)c2ccccc2)CC1c1ccccc1 (stereo not drawn) [Compound 28, N-(1-Phenyl-1-methyl-ethyl)-1-(n-pentyl)-5-phenyl-4,5-dihydro-(1H)-pyrazole-3-carboxamide]	7.94	6.31	100	–
CC(C)CN1N=C(C(=O)N[C@H]2C[C@H]3CC[C@]2(C)C3(C)C)CC1c1ccccc1 (stereo partly drawn) [Compound 110, N-[endo-(1R,2S,4R)-1,7,7-trimethylbicyclo[2.2.1]hept-2-yl]-1-isobutyl-5-phenyl-4,5-dihydro-(1H)-pyrazole-3-carboxamide]	316	50.1	50.1	–
CCCCCN1N=C(C(=O)N[C@H]2C[C@H]3CC[C@]2(C)C3(C)C)CC1c1ccccc1 (stereo partly drawn) [Compound 104, N-[endo-(1R,2S,4R)-1,7,7-trimethylbicyclo[2.2.1]hept-2-yl]-1-(n-pentyl)-5-phenyl-4,5-dihydro-(1H)-pyrazole-3-carboxamide]	3.16	6.31	25.1	–
CCCCCN1N=C(C(=O)Nc2cccc3ccccc23)CC1c1ccccc1 (stereo not drawn) [Compound 4, N-(Napht-1-yl)-1-(n-pentyl)-5-phenyl-4,5-dihydro-(1H)-pyrazole-3-carboxamide]	39.8	31.6	79.4	–
CCCCN1N=C(C(=O)NC(C)(C)c2ccccc2)CC1c1ccccc1 (stereo not drawn) [Compound 102, N-(1-phenyl-1-methyl-ethyl)-1-(n-butyl)-5-phenyl-4,5-dihydro-(1H)-pyrazole-3-carboxamide]	100	39.8	39.8	–
CCCCN1N=C(C(=O)N[C@H]2C[C@H]3CC[C@]2(C)C3(C)C)CC1c1ccccc1 (stereo partly drawn) [Compound 103, N-[endo-(1R,2S,4R)-1,7,7-trimethylbicyclo[2.2.1]hept-2-yl]-1-(n-butyl)-5-phenyl-4,5-dihydro-(1H)-pyrazole-3-carboxamide]	31.6	79.4	25.1	–
CCCCCN1N=C(C(=O)N[C@H]2C[C@H]3CC[C@]2(C)C3(C)C)CC1c1ccccc1F (stereo partly drawn) [Compound 101, N-[endo-(1R,2S,4R)-1,7,7-trimethylbicyclo[2.2.1]hept-2-yl]-1-(n-pentyl)-5-(2-fluorophenyl)-4,5-dihydro-(1H)-pyrazole-3-carboxamide]	6.31	6.31	7.94	–
CCCCCN1N=C(C(=O)NC(C)(C)c2ccc(F)cc2)CC1c1ccccc1 (stereo not drawn) [Compound 105, N-(1-(4-fluorophenyl)-1-methyl-ethyl)-1-(n-pentyl)-5-phenyl-4,5-dihydro-(1H)-pyrazole-3-carboxamide]	1.58	15.8	126	–
CCCCCN1N=C(C(=O)NC23CC4CC(CC(C4)C2)C3)CC1c1ccccc1 (stereo not drawn) [Compound 27, N-(Adamantyl)-1-(n-pentyl)-5-phenyl-4,5-dihydro-(1H)-pyrazole-3-carboxamide]	12.6	15.8	7.94	–
CC(C)(NC(=O)C1=NN(CC2CCCCC2)C(c2ccccc2)C1)c1ccc(F)cc1 (stereo not drawn) [Compound 108, N-[1-(4-fluorophenyl)-1-methyl-ethyl]-1-cyclohexylmethyl-5-phenyl-4,5-dihydro-(1H)-pyrazole-3-carboxamide]	15.8	25.1	31.6	–
CCCCCN1N=C(C(=O)NC(C)c2ccccc2)CC1c1ccccc1 (mixture of isomers) [Compound 14, N-(1-Phenyl-ethyl)-1-(n-pentyl)-5-phenyl-4,5-dihydro-(1H)-pyrazole-3-carboxamide]	501	31.6	251	–
CCCCN1N=C(C(=O)NC(C)(C)c2ccccc2)[C@@H](C)[C@@H]1c1ccccc1 (relative stereo) [Compound 37, N-(1-Phenyl-1-methyl-ethyl)-1-(n-butyl)-trans-4-methyl-5-phenyl-4,5-dihydro-(1H)-pyrazole-3-carboxamide]	7.94	15.8	100	–
CCCCCN1N=C(C(=O)NCc2cccnc2)CC1c1ccccc1 (stereo not drawn) [Compound 7, N-(Pyridin-3-ylmethyl)-1-(n-pentyl)-5-phenyl-4,5-dihydro-(1H)-pyrazole-3-carboxamide]	631	126	501	–
